Each block holds one molecule with its values, some of them ahead of it.
Tests used:
[1] = Surface pressure/area per molecule isotherms of monolayers on Langmuir-Pockels trough; type: physicochemical
Procedure: The surface pressure/area per molecule isotherm measurements were carried out on a Langmuir-Pockels trough, equipped with a Wilhelmy paper balance (accuracy 0.2 mN/m), at the air-water interface. The isotherms were measured at different subphase temperatures between 5° C. and 25° C. (FIG. 2).
Above 10 C, a plateau of a mixed expanded/condensed phase transition was observed. The appearance of the plateau is accompanied by a shift of the initial lift-off area per molecule to higher values. The plateau represents the first-order phase transition from a liquid-expanded (LE) to a liquid-condensed (LC) phase. The plateau is not fully horizontal, especially it becomes steeper as the temperature increases. The monolayers themselves are stable over the measurable range of surface pressures up to an instrument-based cut-off at 51 mN/m. From the onset of the plateau it is possible to determine the temperature-dependent main transition pressure Πt. For 1,3-diheptadecanamidopropan-2-yl (2-(trimethylammonio) ethyl) phosphate this dependence can be described by a linear function (FIG. 3). The experimental data only deviates from this linear function in close vicinity of the minimum transition temperature T0 below which the transition into a condensed phase directly starts from the gas-analog state (re-sublimation process). […]

[2] = Spatially resolved SAXS of liposomes under dynamic (flow/shear) condition in microfluidic device; type: physicochemical
Procedure: The measurement in glass capillaries provided the fingerprint of Pad-PC-Pad liposome structure in static condition. In order to investigate the behavior of Pad-PC-Pad liposomes under an external perturbation, such as a shear stress gradient, 2D raster SAXS scans of Pad-PC-Pad liposomes under flow conditions, produced in a microfluidic device, were recorded. Three flow velocities v were tested: v=0.002; 0.02; and 0.2 μL/s. The corresponding shear rates were determined using Eq. 1. From the lowest to the highest flow rate, the shear rates in the constriction (h=250 μm, w=125 μm) were=1.54, 15.4, and 154.0 s^−1, whereas in the wide region (h=250 μm, w=1000 μm) they corresponded to =0.2 s^−1, 2.0 s^−1, and 20.0 s^−1 2 D maps of the mean scattering intensity in the range Δq=0:096 to 0:102 nm^−1 corresponding to a real space range Δd=65.4 to 61.6 nm between the overall size and the size of the phospholipid head-to-head distance are shown in FIG. 12.
The local modifications of the averaged scattering intensity distribution observed in the 2D scanning SAXS maps of FIG. 12 supported the selection of seven regions of the micro fluidic device, as shown in the sketch of FIG. 13. Three regions were selected before the constriction: one far (#1), one approaching (#2), and one very close (A); symmetrically, on the outlet side, three areas were chosen one very close (B), one close (#4), and one far from the constriction (#5). Region #3 was selected in the constriction avoiding the edges of the device. For each region, the radially integrated scattering intensity I as a function of the scattering vector q at each flow rate v is shown.
The spatially resolved SAXS measurements were performed at the cSAXS beamline at the Swiss Light Source (PSI, Villigen, Switzerland). The X-ray beam was focused to 25 μm×50 μm (vertical×horizontal) spot size at the specimen location, the photon energy was set to 11:2 keV (λ=1:1 Å), and the sample-detector distance to 7:102 m, determined by the first scattering order of a silver behenate specimen. The scattering signal was recorded using the Pilatus 2M detector (Kraftet al., J. Synchrotron Radiat. 2009, 16, 368-375) (pixel size: 172 μm_×172 μm). Dynamic spatially resolved SAXS measurements of the liposomal suspensions were performed using microfluidic devices mounted on an aluminum/polyetheretherketone/aluminum sample holder. Two-dimensional (2D) scans were realized line-by-line by continuously moving the device in horizontal direction, while the detector recorded the data in burst mode. 48 (v)×96 (h) points at step size 25 μm (v)×50 μm (h) were acquired in a pre-selected region of the microfluidic device with an exposure time of 1:5 s per point. The data were processed using the Matlab package available from the beamline (https://www.psi.ch/sls/csaxs/software). During the experiment, the flow rates were adjusted using a syringe pump system (Nemesys, Cetoni GmbH, Korbussen, Germany) connected to the microchannel using polytetrafluoroethylene (PTFE) tubing. For the point-wise background correction, the scattering signal of ultra-pure water in the microfluidic device for all the measured flow rates was recorded before the acquisition of the SAXS signal of the liposomal suspensions. For the microfluidic device with a rectangular channel cross-section, the wall shear rates were calculated from the volumetric flow rates v using the following equation: (Molloy et al., Journal of Thrombosis and Haemostasis 2016, 15, 972-982) λ=6v=h^2w (1) with the shear rate [s^−1], v the volumetric flow rate [μL/s], and w and h the width and height [μm] of the channel, respectively.

[3] = flow rate 0.002 pL/s, position #1
[4] = flow rate 0.002 pL/s, position #2
[5] = flow rate 0.002 pL/s, position #3 (constriction)
[6] = flow rate 0.002 pL/s, position #4
[7] = flow rate 0.002 pL/s, position #5
[8] = flow rate 0.002 pL/s, position A
[9] = flow rate 0.002 pL/s, position B
[10] = flow rate 0.02 pL/s, position #1
[11] = flow rate 0.02 pL/s, position #2
[12] = flow rate 0.02 pL/s, position #3 (constriction)
[13] = flow rate 0.02 pL/s, position #4
[14] = flow rate 0.02 pL/s, position #5
[15] = flow rate 0.02 pL/s, position A
[16] = flow rate 0.02 pL/s, position B
[17] = flow rate 0.20 pL/s, position #1
[18] = flow rate 0.20 pL/s, position #2
[19] = flow rate 0.20 pL/s, position #3 (constriction)
[20] = flow rate 0.20 pL/s, position #4
[21] = flow rate 0.20 pL/s, position #5
[22] = flow rate 0.20 pL/s, position A
[23] = flow rate 0.20 pL/s, position B

minimum transition temperature T0 of monolayer ([1]; air-water interface): 11.2 °C
critical temperature of monolayers ([1]; extrapolation of ΔS to zero): 306.3 K
SMILES: CCCCCCCCCCCCCCCCC(=O)NCC(CNC(=O)CCCCCCCCCCCCCCCC)OP(=O)([O-])OCC[N+](C)(C)C [Rad-PC-Rad, 1,3-diheptadecanamidopropan-2-yl (2-(trimethylammonio)ethyl) phosphate]

Radius of gyration Rg [2, 3]: 59.5 ± 0.2 nm
head-to-head distance dhh [2, 3]: 3.4 ± 0.7 nm
Radius of gyration Rg [2, 4]: 59.1 ± 0.1 nm
head-to-head distance dhh [2, 4]: 3.1 ± 0.4 nm
Radius of gyration Rg [2, 5]: 63.0 ± 0.5 nm
head-to-head distance dhh [2, 5]: 3.9 ± 0.7 nm
Radius of gyration Rg [2, 6]: 61.1 ± 0.2 nm
head-to-head distance dhh [2, 6]: 3.9 ± 0.4 nm
Radius of gyration Rg [2, 7]: 61.6 ± 0.2 nm
head-to-head distance dhh [2, 7]: 3.8 ± 0.3 nm
Radius of gyration Rg [2, 8]: 60.3 ± 0.4 nm
head-to-head distance dhh [2, 8]: 3.4 ± 0.5 nm
Radius of gyration Rg [2, 9]: 59.3 ± 0.9 nm
head-to-head distance dhh [2, 9]: 4.0 ± 0.6 nm
Radius of gyration Rg [2, 10]: 60.2 ± 0.2 nm
head-to-head distance dhh [2, 10]: 3.4 ± 0.7 nm
Radius of gyration Rg [2, 11]: 58.0 ± 0.4 nm
head-to-head distance dhh [2, 11]: 2.9 ± 0.2 nm
Radius of gyration Rg [2, 12]: 64.3 ± 0.6 nm
head-to-head distance dhh [2, 12]: 3.5 ± 0.6 nm
Radius of gyration Rg [2, 13]: 59.1 ± 0.3 nm
head-to-head distance dhh [2, 13]: 3.6 ± 0.3 nm
Radius of gyration Rg [2, 14]: 61.3 ± 0.1 nm
head-to-head distance dhh [2, 14]: 3.9 ± 0.4 nm
Radius of gyration Rg [2, 15]: 55.1 ± 0.5 nm
head-to-head distance dhh [2, 15]: 2.9 ± 0.2 nm
Radius of gyration Rg [2, 16]: 52.4 ± 0.8 nm
head-to-head distance dhh [2, 16]: 4.3 ± 0.5 nm
Radius of gyration Rg [2, 17]: 61.6 ± 0.4 nm
head-to-head distance dhh [2, 17]: 3.4 ± 0.9 nm
Radius of gyration Rg [2, 18]: 61.0 ± 0.5 nm
head-to-head distance dhh [2, 18]: 3.4 ± 0.7 nm
Radius of gyration Rg [2, 19]: 64.0 ± 0.8 nm
head-to-head distance dhh [2, 19]: 3.8 ± 0.8 nm
Radius of gyration Rg [2, 20]: 58.0 ± 0.3 nm
head-to-head distance dhh [2, 20]: 4.0 ± 0.6 nm
Radius of gyration Rg [2, 21]: 60.0 ± 0.4 nm
head-to-head distance dhh [2, 21]: 4.0 ± 0.7 nm
Radius of gyration Rg [2, 22]: 61.4 ± 0.6 nm
head-to-head distance dhh [2, 22]: 3.2 ± 0.6 nm
Radius of gyration Rg [2, 23]: 52.3 ± 0.9 nm
head-to-head distance dhh [2, 23]: 4.4 ± 0.4 nm
SMILES: CCCCCCCCCCCCCCCC(=O)NCC(CNC(=O)CCCCCCCCCCCCCCC)OP(=O)([O-])OCC[N+](C)(C)C [Pad-PC-Pad, 1,3-palmitoylamido-1,3-deoxy-sn-glycero-2-phosphatidylcholine]
